In article PMC10045663, “Synthesis, In Vitro Biological Evaluation of Antiproliferative and Neuroprotective Effects and In Silico Studies of Novel 16E-Arylidene-5α,6α-epoxyepiandrosterone Derivatives” (Biomedicines, 2023):
pIC50: −log10 of the molar value. “Also recorded” adds a separate entry of the source.

Columns and labels:
[1] = test system: T47-D cells (breast cancer); design: method as in PMID 23635011; conditions: MTT assay, read-out: IC50 against T47-D cells; cited from earlier work
[2] = test system: NHDF cells (normal human dermal fibroblasts); test: MTT cell proliferation assay, NHDF cells; assay type: cell-based; conditions: 72 h, non-tumoral cells, read-out: Estimated IC50, NHDF
Procedure: (§1) LNCaP, PC-3, MCF-7, PNT1A, N27, and NHDF cells were obtained from the American Type Culture Collection (ATCC; Manassas, VA, USA) and were cultured in 75 cm^2 culture flasks at 37 °C in a humidified air incubator with 5% CO2. LNCaP, PC-3, PNT1A, and N27 cells, respectively, were cultured in RPMI 1640 medium (Sigma-Aldrich, Inc. St. Louis, MO, USA) with 10% fetal bovine serum (FBS; Sigma-Aldrich, Inc. St. Louis, MO, USA) and 1% of the antibiotic mixture of 10,000 U/mL penicillin G and […] streptomycin (Sp, Sigma-Aldrich, Inc. St. Louis, MO, USA). MCF-7 cells were cultured in DMEM medium (Sigma-Aldrich, Inc. St. Louis, MO, USA) supplemented with 10% fetal bovine serum (FBS; Sigma-Aldrich, Inc. St. Louis, MO, USA) and 1% antibiotic/antimycotic (10,000 U/mL penicillin G, […] streptomycin, and 25 µg/mL amphotericin B: Ab, Sigma-Aldrich, Inc. St. Louis, MO, USA). Finally, NHDF cells were cultured in RPMI 1640 medium supplemented with 10% FBS, 2 mM L-glutamine, 10 mM HEPES, 1 mM sodium pyruvate, and 1% of the antibiotic/antimycotic Ab, and these cells were used in passages 10th to 14th. For all cell types, the medium was renewed every 2 days until cells nearly reached the confluence state. When cells reach approximately 90–95% confluence, they are gently detached by trypsinization (trypsin-EDTA solution: 0.125 g/L of trypsin and 0.02 g/L of EDTA). Before each experiment, viable cells were counted in a Neubauer chamber by a trypan-blue exclusion assay and adequately diluted in the appropriate complete cell culture medium.
(§2) All tested compounds were dissolved in dimethyl sulfoxide (DMSO; Sigma-Aldrich, Inc. St. Louis, MO, USA) at a concentration of 10 mM and stored at 4 °C. From the mother-solutions, the diluted solutions of the compounds, in different concentrations, were prepared in the respective complete culture medium before each experiment.
(§3) After reaching a confluence state, cells were trypsinized and counted by the trypan-blue exclusion assay and then seeded with an initial density of 2 × 10^4 cells/mL in 96-well culture plates (Nunc, Apogent, Denmark) and left to adhere and grow for 48 h. Subsequently, the medium was removed, and the cells were treated with compound solutions (10 and 50 µM for preliminary studies and 0.01, 0.1, 1, 10, 50, and 100 µM for concentration-response studies) in complete culture medium for 72 h. 5-Fluorouracil (5-FU) was used as a positive control, and untreated cells were used as the negative control. Compounds leading to cell proliferation relative to control clearly below 50%, at 10 µM, or clearly below 25%, at 50 µM, in the screening studies were selected to concentration-response studies in tumoral cell lines. Each experiment was performed in quadruplicate and independently at least two times. The in vitro antiproliferative effects were evaluated by the MTT assay (Sigma-Aldrich, Inc. St. Louis, MO, USA). After the incubation period, the medium was removed, and 100 µL of phosphate buffer saline (PBS, NaCl 137 mM; KCl 2.7 mM; Na2HPO4 10 mM; and KH2PO4 1.8 mM in deionized water with a pH adjusted to 7.4) were used to wash the cells. Then, 100 µL of the MTT solution (5 mg/mL) was prepared in the appropriate serum-free medium and added to each well, followed by incubation for 4 h at 37 °C. Hereafter, the MTT containing medium was removed, and the formazan crystals were dissolved in DMSO. Then, the absorbance was measured at 570 nm using a xMarkTM microplate spectrophotometer from BIO-RAD Laboratories. Cell viability values were expressed as percentages relative to the negative control.

[3] = test system: PNT1A (normal prostate cells); test: MTT cell proliferation assay, PNT1A cells; assay type: cell-based; conditions: 72 h, non-tumoral cells, read-out: Estimated IC50, PNT1A
Procedure: as §1, §2, §3

[4] = test system: N27 (rat dopaminergic neuronal cells); test: MTT cell proliferation assay, N27 cells; assay type: cell-based; conditions: 72 h, non-tumoral cells, read-out: Estimated IC50, N27
Procedure: as §1, §2, §3

[5] = test system: PC-3 cells (androgen-independent prostatic cancer); test: MTT cell proliferation assay, PC-3 cells; assay type: cell-based; conditions: PC-3, 50 µM, 72 h
Procedure: as §1, §2, §3

N27 cells [6] = test: N27 cell viability after 24 h (MTT), substance alone; assay type: cell-based, rat; conditions: for effect on N27 cell viability: 10 µM alone; for fold-increase in cell viability compared to 10 µM of the respective compound / fold-increase in cell viability compared to the control: 50 µM alone
Procedure: The immortalized rat mesencephalic dopaminergic cell line (N27 cells; a kind gift from Dr. Yoon-Seong Kim, Burnett School of Biomedical Sciences, University of Central Florida) was grown in Roswell Park Memorial Institute (RPMI) 1640 medium (Sigma-Aldrich) containing 2 g/L sodium bicarbonate, 10% fetal bovine serum (FBS; Millipore), and 1 mL/L of penicillin/streptomycin (GIBCO) in a humidified atmosphere of 5% CO2 at 37 °C. Cells were plated at a density of 0.31 × 10^5 cells per cm^2 in 96-well culture plates. […] To assess cell viability, MTT reduction was performed as previously described (Section 2.3) with some modifications. Briefly, after 24 h of cell treatments, 0.5 mg/mL of MTT was added to cells for 4 h at 37 °C. Then, the resultant precipitate was dissolved in 10% SDS and quantified at a wavelength of 570 nm.

N27 cells [7] = test: Neuroprotection against 6-OHDA-induced toxicity (MTT); assay type: cell-based, rat; conditions: 24 h; for protection against 6-OHDA-induced neurotoxicity: 10 and 50 µM together with 50 µM 6-OHDA
Procedure: The immortalized rat mesencephalic dopaminergic cell line (N27 cells; a kind gift from Dr. Yoon-Seong Kim, Burnett School of Biomedical Sciences, University of Central Florida) was grown in Roswell Park Memorial Institute (RPMI) 1640 medium (Sigma-Aldrich) containing 2 g/L sodium bicarbonate, 10% fetal bovine serum (FBS; Millipore), and 1 mL/L of penicillin/streptomycin (GIBCO) in a humidified atmosphere of 5% CO2 at 37 °C. Cells were plated at a density of 0.31 × 10^5 cells per cm^2 in 96-well culture plates. In the MTT assay, N27 cells were incubated in the presence of several compounds with 50 μM of 6-OHDA. To assess cell viability, MTT reduction was performed as previously described (Section 2.3) with some modifications. Briefly, after 24 h of cell treatments, 0.5 mg/mL of MTT was added to cells for 4 h at 37 °C. Then, the resultant precipitate was dissolved in 10% SDS and quantified at a wavelength of 570 nm.

[8] = test system: LNCaP cells (androgen-dependent prostatic cancer); test: MTT cell proliferation assay, LNCaP cells; assay type: cell-based; conditions: 72 h
Procedure: as §1, §2, §3

[9] = test system: MCF-7 cells (estrogen-responsive breast cancer cells); test: MTT cell proliferation assay, MCF-7 cells; assay type: cell-based; conditions: MTT, 72 h, tumoral cells; read-out: Estimated IC50, MCF-7
Procedure: as §1, §2, §3

[10] = test system: all cell lines (NHDF, PNT1A, N27, LNCaP, PC-3, MCF-7); test: MTT preliminary screening, all cell lines taken together; assay type: cell-based; conditions: 50 µM, 72 h
Procedure: as §1, §2, §3

| Compound | pIC50 [1] | pIC50 [2] | pIC50 [3] | pIC50 [4] | decrease on cell proliferation relative to the control [5] | effect on N27 cell viability (N27 cells [6]) | protection against 6-OHDA-induced neurotoxicity (N27 cells [7]) | effect on LNCaP cell proliferation ([8]; LNCaP, 10 µM) | decrease in LNCaP cell proliferation ([8]; LNCaP, 50 µM) | pIC50 ([8]; MTT, tumoral cells, read-out: Estimated IC50, LNCaP) | pIC50 [9] | relative cell proliferation [10] | fold-increase in cell viability compared to 10 µM of the respective compound (N27 cells [6]) | fold-increase in cell viability compared to the control (N27 cells [6]) | fold-decrease in cell viability compared to 6-OHDA alone (N27 cells [7]; 50 µM together with 50 µM 6-OHDA) |
| --- | --- | --- | --- | --- | --- | --- | --- | --- | --- | --- | --- | --- | --- | --- | --- |
| CC12CCC3C(CC=C4CC(O)CCC43C)C1C/C(=C\c1ccc([N+](=O)[O-])cc1)C2=O (stereo not drawn) [Compound 4, (E)-16-(4-Nitrobenzylidene)-3-hydroxy-10,13-dimethyl-1,3,4,7,8,9,10,11,12,13,15,16-dodecahydro-2H-cyclopenta[α]phenanthren-17(14H)-one] | < 4.00 | – | – | – | – | – | – | – | – | – | – | – | – | – | – |
| C[C@]12CC[C@H]3[C@@H](C[C@@H]4O[C@@]45C[C@@H](O)CC[C@]35C)[C@@H]1C/C(=C\c1ccco1)C2=O [Compound 20, (E)-16-(Furan-2-ylmethylene)-3-hydroxy-5α ,6α -epoxy-10,13-dimethyl-1,3,4,7,8,9,10,11,12,13,15,16-dodecahydro-2H-cyclopenta[α ]phenanthren-17(14H)-one] | – | 4.30 | 4.25 | 4.19 | higher than 75% | did not affect cell viability | did not counteract; also recorded: no significant neuroprotection | – | – | – | – | – | – | – | – |
| CC12CCC3C(CC=C4CC(O)CCC43C)C1C/C(=C\c1ccc(Cl)cc1Cl)C2=O (stereo not drawn) [Compound 9, (E)-16-(2,4-Dichlorobenzylidene)-3-hydroxy-10,13-dimethyl-1,3,4,7,8,9,10,11,12,13,15,16-dodecahydro-2H-cyclopenta[α]phenanthren-17(14H)-one] | < 4.00 | – | – | – | – | – | – | – | – | – | – | – | – | – | – |
| CC12CCC3C(CC4OC45CC(O)CCC35C)C1CC(=Cc1ccc(Cl)o1)C2=O (stereo not drawn) [Compound 27, (E)-16-[(5-Chlorofuran-2-yl)methylene]-3-hydroxy-5α ,6α -epoxy-10,13-dimethyl-1,3,4,7,8,9,10,11,12,13,15,16-dodecahydro-2H-cyclopenta[α ]phenanthren-17(14H)-one] | – | 4.74 | 4.71 | 4.37 | – | did not affect cell viability | did not counteract; also recorded: no significant neuroprotection | no relevant effects | higher than 75% | 4.80 | 4.24 | ≤ 50% | 1.41 fold | 1.25 fold | 0.9 fold |
| CC12CCC3C(CC4OC45CC(O)CCC35C)C1CC(=Cc1ccc([N+](=O)[O-])cc1)C2=O (stereo not drawn) [Compound 17, (E)-16-(4-Nitrobenzylidene)-3-hydroxy-5α ,6α -epoxy-10,13-dimethyl-1,3,4,7,8,9,10,11,12,13,15,16-dodecahydro-2H-cyclopenta[α ]phenanthren-17(14H)-one] | – | 4.49 | < 4.00 | < 4.00 | – | did not affect cell viability | did not counteract; also recorded: no significant neuroprotection | – | – | – | 4.68 | – | 1.59 fold | 1.53 fold | – |
